Reference: ChEMBL document CHEMBL1137308 (J Med Chem, 2006)
≈ marks a conversion by molar mass, not a printed value. Calls of active or inactive are those of the source. The rule behind the calls is not given here.

Columns and labels:
[1] = system: Klebsiella pneumoniae; test: Antibacterial activity against Klebsiella pneumonia KP2; format: functional
[2] = system: Providencia rettgeri; test: Antibacterial activity against Providencia rettgeri PR9; format: functional
[3] = system: Haemophilus influenzae; test: Antibacterial activity against Haemophilus influenzae HI3542; format: functional
[4] = system: Moraxella catarrhalis; test: Antibacterial activity against Moraxella catarrhalis BC-3531; format: functional
[5] = system: Staphylococcus aureus; test: Antibacterial activity against Staphylococcus aureus SA2558; format: functional
[6] = system: Enterococcus faecalis; test: Antibacterial activity against Enterococcus faecalis […]; format: functional
[7] = system: Staphylococcus aureus; test: Antibacterial activity against Staphylococcus aureus SA2554; format: functional
[8] = system: Enterococcus faecium; test: Antibacterial activity against vancomycin-resistant Enterococcus faecium EF4-3489; format: functional
[9] = system: Escherichia coli; test: Antibacterial activity against Escherichia coli EC2549; format: functional
[10] = system: Staphylococcus aureus; test: Antibacterial activity against ciprofolxacin-resistant Staphylococcus aureus SA2017; format: functional
[11] = system: Escherichia coli; test: Antibacterial activity against Escherichia coli EC2026; format: functional
[12] = system: Enterococcus faecalis; test: Antibacterial activity against Enterococcus faecalis MGH2 EF1-1; format: functional
[13] = system: Streptococcus pyogenes; test: Antibacterial activity against Streptococcus pyogenes C203 SP1-1; format: functional
[14] = biological target: DNA gyrase (Escherichia coli, UniProt P0AES4+P0AES6); test: Inhibition of Escherichia coli gyrase; format: functional
[15] = system: Enterococcus faecalis; test: Activity against sc dosed mouse infected with Enterococcus faecalis; format: functional; settings: read-out: PD50
[16] = system: Klebsiella pneumoniae; test: Antibacterial activity against Klebsiella pneumonia ESBL KP3729; format: functional
[17] = system: Streptococcus pneumoniae; test: Antibacterial activity against quinolone-resistant Streptococcus pneumonia SP3763; format: functional
[18] = system: Streptococcus pneumoniae; test: Antibacterial activity against Streptococcus pneumonia SVI SP3; format: functional
[19] = system: Escherichia coli; test: Antibacterial activity against Escherichia coli EC1-10; format: functional
[20] = system: Pseudomonas aeruginosa; test: Antibacterial activity against Pseudomonas aeruginosa PA7; format: functional
[21] = system: Staphylococcus aureus; test: Antibacterial activity against Staphylococcus aureus SA2552; format: functional
[22] = system: Staphylococcus aureus; test: Antibacterial activity against Staphylococcus aureus SA1417; format: functional
[23] = system: Streptococcus pyogenes; test: Activity against sc dosed mouse infected with Streptococcus pyogenes; format: functional; settings: read-out: PD50
[24] = system: Streptococcus pyogenes; test: Activity against po dosed mouse infected with Streptococcus pyogenes; format: functional; settings: read-out: PD50
[25] = system: Streptococcus pyogenes; test: Antibacterial activity against Streptococcus pyogenes […]; format: functional
[26] = system: Enterococcus faecalis; test: Activity against po dosed mouse infected with Enterococcus faecalis; format: functional; settings: read-out: PD50
[27] = system: Staphylococcus aureus; test: Antibacterial activity against methicillin-resistant Staphylococcus aureus SA1417; format: functional
[28] = system: Enterococcus faecalis; test: Antibacterial activity against Enterococcus faecalis EF1-3524; format: functional
[29] = system: Staphylococcus aureus; test: Antibacterial activity against Staphylococcus aureus UC-76 SA-1; format: functional
[30] = biological target: T1, DNA gyrase (Escherichia coli) (UniProt P0AES6+P0AES4); test: Ability to inhibit DNA supercoiling activity of Escherichia coli gyrase; format: functional
[31] = system: Escherichia coli; test: Inhibition of Escherichia coli DNA synthesis; format: functional, organism-based
[32] = biological target: T1, DNA gyrase (Escherichia coli); test: Displacement of [14C]ciprofloxacin from Escherichia coli gyrase; format: protein-complex assay

Row | SMILES | MIC [1] [µg/mL] | MIC [2] [µg/mL] | MIC [3] [µg/mL] | MIC [4] [µg/mL] | MIC [5] [µg/mL] | MIC [7] [µg/mL] | MIC [8] [µg/mL] | MIC [9] [µg/mL] | MIC [10] [µg/mL] | MIC [12] [µg/mL] | MIC [13] [µg/mL] | MIC [16] [µg/mL] | MIC [17] [µg/mL] | MIC [18] [µg/mL] | MIC [20] [µg/mL] | MIC [21] [µg/mL] | MIC [22] [µg/mL] | MIC [27] [µg/mL] | MIC [28] [µg/mL] | MIC [29] [µg/mL] | also measured
1 | COc1c(N2CC[C@@H]([C@H](C)N)C2)c(F)cc2c(=O)n(N)c(=O)n(C3CC3)c12 | 8 (≈ 21.2 µM) | 4 (≈ 10.6 µM) | 0.25 (≈ 0.662 µM) | 1 (≈ 2.65 µM) | 0.5 (≈ 1.32 µM) | 0.25 (≈ 0.662 µM) | 1 (≈ 2.65 µM) | 0.13 (≈ 0.344 µM) | 1 (≈ 2.65 µM) | 0.13 (≈ 0.344 µM) | 0.03 (≈ 0.0795 µM) | 8 (≈ 21.2 µM) | 0.06 (≈ 0.159 µM) | 0.03 (≈ 0.0795 µM) | 8 (≈ 21.2 µM) | 0.5 (≈ 1.32 µM) | 0.5 (≈ 1.32 µM) | 0.25 (≈ 0.662 µM) | 0.25 (≈ 0.662 µM) | 0.13 (≈ 0.344 µM) | MIC [6]: 0.25 µg/mL (≈ 0.662 µM); MIC [11]: 4 µg/mL (≈ 10.6 µM); IC50 [14]: 600 nM; ED50 [15]: 11 mg/kg; MIC [19]: 2 µg/mL (≈ 5.3 µM); ED50 [23]: 1.2 mg/kg; ED50 [24]: 3.1 mg/kg; MIC [25]: 0.03 µg/mL (≈ 0.0795 µM); ED50 [26]: 38 mg/kg
2 | Cc1c(N2CC[C@@H]([C@H](C)N)C2)c(F)cc2c(=O)n(N)c(=O)n(C3CC3)c12 | 1 (≈ 2.77 µM) | 2 (≈ 5.53 µM) | 0.125 (≈ 0.346 µM) | 0.25 (≈ 0.692 µM) | 0.25 (≈ 0.692 µM) | 0.13 (≈ 0.36 µM) | 1 (≈ 2.77 µM) | 0.03 (≈ 0.083 µM) | 0.5 (≈ 1.38 µM) | 0.125 (≈ 0.346 µM) | 0.015 (≈ 0.0415 µM) | 2 (≈ 5.53 µM) | 0.06 (≈ 0.166 µM) | 0.015 (≈ 0.0415 µM) | 4 (≈ 11.1 µM) | 0.25 (≈ 0.692 µM) | 0.125 (≈ 0.346 µM) | 0.125 (≈ 0.346 µM) | 0.25 (≈ 0.692 µM) | 0.06 (≈ 0.166 µM) | MIC [6]: 0.06 µg/mL (≈ 0.166 µM); Activity [30]: Active; MIC [11]: 1 µg/mL (≈ 2.77 µM); IC50 [14]: 200 nM; ED50 [15]: 4.2 mg/kg; Activity [31]: Active; Activity [32]: Active; MIC [19]: 1 µg/mL (≈ 2.77 µM); ED50 [23]: 0.27 mg/kg; ED50 [24]: 1.4 mg/kg; MIC [25]: 0.015 µg/mL (≈ 0.0415 µM); ED50 [26]: 19 mg/kg
3 | O=C(O)c1cn(C2CC2)c2cc(N3CCNCC3)c(F)cc2c1=O [CIPROFLOXACIN] |  | 0.06 (≈ 0.181 µM) | 0.008 (≈ 0.0241 µM) | 0.03 (≈ 0.0905 µM) | 64 (≈ 193 µM) | 2 (≈ 6.04 µM) | > 64 |  | > 64 | 0.5 (≈ 1.51 µM) | 0.5 (≈ 1.51 µM) |  | 64 (≈ 193 µM) | 1 (≈ 3.02 µM) | 0.06 (≈ 0.181 µM) |  | 0.5 (≈ 1.51 µM) | 0.5 (≈ 1.51 µM) | 32 (≈ 96.6 µM) | 0.13 (≈ 0.392 µM) | 
4 | C[C@H]1NCc2cc(-c3ccc4c(=O)c(C(=O)O)cn(C5CC5)c4c3OC(F)F)ccc21 [GARENOXACIN] | 0.06 (≈ 0.141 µM) | 0.06 (≈ 0.141 µM) | 0.015 (≈ 0.0352 µM) | 0.03 (≈ 0.0704 µM) | 2 (≈ 4.69 µM) | 0.03 (≈ 0.0704 µM) | 8 (≈ 18.8 µM) | 0.008 (≈ 0.0188 µM) | 2 (≈ 4.69 µM) | 0.125 (≈ 0.293 µM) | 0.06 (≈ 0.141 µM) | 32 (≈ 75 µM) | 1 (≈ 2.35 µM) | 0.03 (≈ 0.0704 µM) | 1 (≈ 2.35 µM) | 0.03 (≈ 0.0704 µM) | 0.06 (≈ 0.141 µM) | 0.03 (≈ 0.0704 µM) | 4 (≈ 9.38 µM) | 0.015 (≈ 0.0352 µM) | MIC [11]: 0.03 µg/mL (≈ 0.0704 µM); MIC [19]: 0.25 µg/mL (≈ 0.586 µM)
5 | COc1c(N2CCNC(C)C2)c(F)cc2c(=O)c(C(=O)O)cn(C3CC3)c12 (stereo not drawn) [GATIFLOXACIN] | 0.06 (≈ 0.16 µM) | 0.5 (≈ 1.33 µM) | 0.015 (≈ 0.04 µM) | 0.03 (≈ 0.0799 µM) | 4 (≈ 10.7 µM) | 0.125 (≈ 0.333 µM) | 32 (≈ 85.2 µM) | < 0.06 | 8 (≈ 21.3 µM) | 0.5 (≈ 1.33 µM) | 0.5 (≈ 1.33 µM) | 8 (≈ 21.3 µM) | 4 (≈ 10.7 µM) | 0.125 (≈ 0.333 µM) | 0.5 (≈ 1.33 µM) | 0.125 (≈ 0.333 µM) | 0.125 (≈ 0.333 µM) | 0.125 (≈ 0.333 µM) | 16 (≈ 42.6 µM) | 0.03 (≈ 0.0799 µM) | MIC [11]: < 0.06 µg/mL; MIC [19]: 0.06 µg/mL (≈ 0.16 µM)
6 | C[C@H]1COc2c(N3CCN(C)CC3)c(F)cc3c(=O)c(C(=O)O)cn1c23.C[C@H]1COc2c(N3CCN(C)CC3)c(F)cc3c(=O)c(C(=O)O)cn1c23.O [LEVOFLOXACIN] | 0.03 | 0.5 | 0.008 | 0.03 | 8 | 0.5 | 64 |  | 8 | 1 | 0.5 | 8 |  |  | 0.5 | 0.25 | 0.25 | 0.25 | 32 | 0.125 | 
